# Like-named read-outs stand apart in the source and are kept apart here.
# Assays:
# DU4475 cells = test: Cell growth inhibition assay (CellTiter-Glo), DU4475; type: cell-based; settings: Homo sapiens, DU-4475; 3-5 days
# Description: DU4475, COLO205, and OPM2 cells were plated in 96-well plates at 5000 cells/well. The following day test compounds (compounds according to Formula I) were added, maintaining the final DMSO solvent concentration at 0.4%. After the desired incubation time (3-5 days), cell number was assayed using the CellTiter-Glo luminescent cell viability assay (Promega, Inc., Madison, Wis.). Viability was expressed as percent DMSO control after background subtraction.
# IKKε = target: T1, IKKε (Homo sapiens, UniProt Q14164); test: In-vitro IKKε kinase assay ([γ33]ATP filter-plate); type: biochemical
# T1 construct: His-tag; made in house; host or cells: Sf9 insect cells
# T1 sequence (Q14164 1-716): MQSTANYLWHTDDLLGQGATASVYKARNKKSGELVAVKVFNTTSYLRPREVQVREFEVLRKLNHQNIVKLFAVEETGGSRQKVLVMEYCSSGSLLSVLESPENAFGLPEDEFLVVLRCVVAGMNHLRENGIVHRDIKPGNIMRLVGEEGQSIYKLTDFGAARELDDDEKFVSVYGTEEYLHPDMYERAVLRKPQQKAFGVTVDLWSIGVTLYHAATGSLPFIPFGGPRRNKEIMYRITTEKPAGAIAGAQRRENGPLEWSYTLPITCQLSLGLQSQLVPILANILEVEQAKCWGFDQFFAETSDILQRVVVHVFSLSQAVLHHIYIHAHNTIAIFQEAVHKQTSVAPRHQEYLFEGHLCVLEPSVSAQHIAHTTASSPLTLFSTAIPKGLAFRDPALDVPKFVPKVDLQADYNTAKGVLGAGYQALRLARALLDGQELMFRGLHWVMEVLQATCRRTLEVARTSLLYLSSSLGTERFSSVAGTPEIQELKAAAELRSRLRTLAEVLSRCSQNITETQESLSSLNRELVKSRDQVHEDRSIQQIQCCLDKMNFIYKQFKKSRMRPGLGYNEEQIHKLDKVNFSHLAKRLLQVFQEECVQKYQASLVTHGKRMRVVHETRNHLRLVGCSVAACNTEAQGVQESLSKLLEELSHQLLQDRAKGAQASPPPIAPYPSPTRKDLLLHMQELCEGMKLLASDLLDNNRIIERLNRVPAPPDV
# How it was run: (§1)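 His-tagged Sf9-expressed kinases at 0.1 or 0.02 μg/ml (TBK1) and 0.1 or 0.015 μg/ml (IKKε) for normal and sensitized formats, with myelin basic protein or casein substrate. ATP was at 2×Km (60 μM TBK1, 32 μM IKKε) plus 0.3 μCi [γ33]ATP. Reactions ran 30-45 min, were captured on P-81 filters, and counts were normalized to DMSO.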
# [1] = system: secreted RANTES, prostate cancer DU145 cells; test: ELISA to detect secreted RANTES, DU145 cells; type: cell-based; settings: Homo sapiens, DU-145; cell system (DU145 or Poly(I:C)-induced MALME-3) not specified; read-out: IC50 for inhibition of the secretion of RANTES
# Description: Prostate cancer DU145 cells were seeded at 20,000 cells/well in a 96-well tissue culture plate. The following day media was removed and replaced with complete media containing IKKε/TBK1 inhibitor (starting concentration 25 µM, 1:3 dilutions, final DMSO 0.05%). Cells were incubated for 20 hours and culture supernatant used to determine secreted RANTES levels using a commercially available ELISA kit (R & D Systems, Minneapolis, Minn.).
# [2] = system: IKKε-mediated phosphorylation of IRF3; test: In-situ phosphorylation of IRF3 (pIRF3 Ser396 ELISA) in HEK293T cells cotransfected with IRF3 and IKKε; type: cell-based; settings: Homo sapiens, HEK-293T
# How it was run: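 For the IRF3 ELISA, HEK293T cells cotransfected with IRF3 and IKKε were replated at 20,000/well and treated 20 h. Phospho-Ser396 IRF3 was measured by ELISA and normalised to DMSO, with viability checked by CellTiter-Glo. For IRF7, cells transfected with IRF7 and TBK1 were treated overnight, and pSer477/Ser479 IRF7 was detected by Western blot.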
# TBK1 = target: T2, TBK1 (Homo sapiens, UniProt Q9UHD2); test: In-vitro TBK1 kinase assay ([γ33]ATP filter-plate); type: biochemical
# T2 construct: His-tag; made in house; host or cells: Sf9 insect cells
# T2 sequence (Q9UHD2 1-729): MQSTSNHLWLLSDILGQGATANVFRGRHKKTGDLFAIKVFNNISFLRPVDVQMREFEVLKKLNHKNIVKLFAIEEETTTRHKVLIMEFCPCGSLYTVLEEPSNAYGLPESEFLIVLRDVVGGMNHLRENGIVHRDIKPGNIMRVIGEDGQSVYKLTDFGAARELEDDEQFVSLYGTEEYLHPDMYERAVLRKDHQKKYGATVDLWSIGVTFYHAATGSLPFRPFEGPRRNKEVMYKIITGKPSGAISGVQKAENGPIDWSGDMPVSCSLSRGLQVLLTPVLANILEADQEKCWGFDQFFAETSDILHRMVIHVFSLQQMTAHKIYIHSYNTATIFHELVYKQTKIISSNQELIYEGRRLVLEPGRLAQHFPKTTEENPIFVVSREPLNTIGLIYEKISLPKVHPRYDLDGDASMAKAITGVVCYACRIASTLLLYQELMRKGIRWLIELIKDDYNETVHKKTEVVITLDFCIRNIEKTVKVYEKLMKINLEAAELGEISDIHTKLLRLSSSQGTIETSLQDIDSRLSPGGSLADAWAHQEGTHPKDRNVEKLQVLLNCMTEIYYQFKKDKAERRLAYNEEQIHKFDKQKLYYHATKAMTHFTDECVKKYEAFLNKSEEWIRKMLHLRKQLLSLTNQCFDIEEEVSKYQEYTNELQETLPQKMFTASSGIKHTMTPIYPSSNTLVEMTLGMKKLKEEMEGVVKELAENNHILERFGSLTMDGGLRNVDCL
# How it was run: as §1
# [3] = text bins, read-out: IC50 for inhibition of the kinase activity of IKKε
# [4] = HEK293T cells, 20 hours, text bins, read-out: IC50 for inhibition of the in-situ IKKε-mediated phosphorylation of IRF3
# [5] = text bins, read-out: IC50 for inhibition of the kinase activity of TBK1
structure (smiles),measurement,setting,value
"COCCOCC(=O)Nc1cc(Nc2nccc(-c3ccc(OC)c(C#N)c3)n2)cc(OC)c1 [compound 316, N-(3-{[4-(3-Cyano-4-methoxyphenyl)pyrimidin-2-yl]amino}-5-methoxyphenyl)-2-(2-methoxyethoxy) acetamide]",IC50,DU4475 cells,≤ 10 nM
same,IC50,IKKε; [3],5 to 50 nM
"COc1cc(-c2ccnc(Nc3ccc(N4CCN(CCO)CC4)cc3)n2)cc(C#N)c1OC1CCOCC1 [compound 446, 5-[2-({4-[4-(2-Hydroxyethyl)piperazin-1-yl]phenyl}amino)pyrimidin-4-yl]-3-methoxy-2-(tetrahydro-2H-pyran-4-yloxy)benzonitrile]",IC50,[1],< 10 nM
same,IC50,IKKε; [3],< 5 nM
same,IC50,[2]; [4],< 100 nM
same,IC50,TBK1; [5],< 10 nM
"CC(=O)NCc1ccc(Nc2nccc(-c3ccc(OC4CCOCC4)c(C#N)c3)n2)cc1 [compound 492, N-[4-({4-[3-cyano-4-(tetrahydro-2H-pyran-4-yloxy)phenyl]pyrimidin-2-yl}amino)benzyl] acetamide]",IC50,[1],< 10 nM
same,IC50,IKKε; [3],< 5 nM
same,IC50,[2]; [4],< 100 nM
same,IC50,TBK1; [5],< 10 nM
"COc1ccc(-c2ccnc(Nc3cc(CO)c(OC)c(OC)c3)n2)cc1C#N [Example 127, 5-(2-{[3-(Hydroxymethyl)-4,5-dimethoxyphenyl]amino}pyrimidin-4-yl)-2-methoxybenzonitrile]",IC50,DU4475 cells,≤ 10 nM
same,IC50,IKKε; [3],< 5 nM
same,IC50,TBK1; [5],< 10 nM
"COc1cc(Nc2nccc(-c3ccc(OC4CCOCC4)c(C#N)c3)n2)ccc1C(=O)N(C)CCN(C)C [compound 505, 4-({4-[3-cyano-4-(tetrahydro-2H-pyran-4-yloxy)phenyl]pyrimidin-2-yl}amino)-N-[2-(dimethylamino)ethyl]-2-mrthoxy-N-methylbenzamide]",IC50,[1],< 10 nM
same,IC50,IKKε; [3],< 5 nM
same,IC50,[2]; [4],< 100 nM
same,IC50,TBK1; [5],< 10 nM
"COc1cc(NC(=O)CCSC)cc(Nc2nccc(-c3ccc(OC)c(C#N)c3)n2)c1 [compound 339, N-(3-{[4-(3-Cyano-4-methoxyphenyl)pyrimidin-2-yl]amino}-5-methoxyphenyl)-3-(methylsulfanyl) propanamide]",IC50,DU4475 cells,≤ 10 nM
same,IC50,IKKε; [3],5 to 50 nM
same,IC50,TBK1; [5],10 to 100 nM
"COc1cc(Nc2nccc(-c3ccc(OC4CCOCC4)c(C#N)c3)n2)ccc1CN1CCN(CCO)CC1 [compound 477, 5-{2-[(4-{[4-(2-Hydroxyethyl)piperazin-1-yl]methyl}-3-methoxyphenyl)amino]pyrimidin-4-yl}-2-(tetrahydro-2H-pyran-4-yloxy)benzonitrile]",IC50,IKKε; [3],< 5 nM
same,IC50,[2]; [4],< 100 nM
same,IC50,TBK1; [5],10 to 100 nM
"N#Cc1cc(-c2ccnc(Nc3ccc(CNC(=O)CO)cc3)n2)ccc1OC1CCOCC1 [compound 495, N-[4-({4-[3-cyano-4-(tetrahydro-2H-pyran-4-yloxy)phenyl]pyrimidin-2-yl}amino)benzyl]-2-hydroxyacetamide]",IC50,IKKε; [3],< 5 nM
same,IC50,[2]; [4],< 100 nM
same,IC50,TBK1; [5],< 10 nM
"COc1ccc(Nc2nccc(-c3ccc(OC4CCOCC4)c(C#N)c3)n2)cc1OCC(N)=O [Example 132, 2-[5-({4-[3-cyano-4-(tetrahydro-2H-pyran-4-yloxy)phenyl]pyrimidin-2-yl}amino)-2-methoxyphenoxy] acetamide]",IC50,IKKε; [3],< 5 nM
same,IC50,[2]; [4],250 to 500 nM
same,IC50,TBK1; [5],< 10 nM
"COc1cc(Nc2nccc(-c3ccc(OC4CCOCC4)c(C#N)c3)n2)ccc1S(=O)(=O)N1CCCN(C)CC1 [compound 392, 5-[2-({3-Methoxy-4-[(4-methyl-1,4-diazepan-1-yl)sulfonyl]phenyl}amino)pyrimidin-4-yl]-2-(tetrahydro-2H-pyran-4-yloxy)benzonitrile]",IC50,"IKKε; Table 3, read-out: IKKε IC50",0.2 nM
same,IC50,IKKε; [3],< 5 nM
same,IC50,"[2]; HEK293T cells in culture, Table 3, read-out: pIRF3 ELISA IC50",12.2 nM
same,IC50,[2]; [4],< 100 nM
same,IC50,"TBK1; Table 3, read-out: TBK1 IC50",0.2 nM
same,IC50,TBK1; [5],< 10 nM
"COc1cc(Nc2nccc(-c3ccc(OC4CCOCC4)c(C#N)c3)n2)ccc1C(=O)NCCC1CCCN1C (centres unmarked) [compound 307, 4-({4-[3-cyano-4-(tetrahydro-2H-pyran-4-yloxy)phenyl]pyrimidin-2-yl}amino)-2-methoxy-N-[2-(1-methylpyrrolidin-2-yl)ethyl]benzamide]",IC50,IKKε; [3],< 5 nM
same,IC50,[2]; [4],100 to 250 nM
same,IC50,TBK1; [5],< 10 nM
"COc1cc(Nc2nccc(-c3ccc(OC4CCOCC4)c(C#N)c3)n2)ccc1CN1CC(O)C1 [compound 483, 5-[2-({4-[(3-Hydroxyazetidin-1-yl)methyl]-3-methoxyphenyl}amino)pyrimidin-4-yl]-2-(tetrahydro-2H-pyran-4-yloxy)benzonitrile]",IC50,IKKε; [3],5 to 50 nM
same,IC50,[2]; [4],< 100 nM
same,IC50,TBK1; [5],< 10 nM
"COc1cc(Nc2nccc(-c3ccc(NC(=O)C(C)C)c(C#N)c3)n2)ccc1OCCCN1CCOCC1 [compound 434, N-{2-cyano-4-[2-({3-methoxy-4-[3-(morpholin-4-yl)propoxy]phenyl}amino)pyrimidin-4-yl]phenyl}-2-methylpropanamide]",IC50,IKKε; [3],5 to 50 nM
same,IC50,[2]; [4],< 100 nM
same,IC50,TBK1; [5],< 10 nM

# From patent US20150352108A1, “AMINO-PYRIMIDINE COMPOUNDS AS INHIBITORS OF TBK1 AND/OR IKK EPSILON” (Alzheimer's Institute of America, priority 2009, published 2015)
